Source: publication PMC11002876, “KcsA-Kv1.x chimeras with complete ligand-binding sites provide improved predictivity for screening selective Kv1.x blockers” (The Journal of Biological Chemistry, 2024)
Changes are numbered by the printed parent chain. Where a SMILES comes first, the peptide text is derived from it.

Experiments:
human Kv1.3 = details: cited from earlier work; for IC50: human Kv1.3 channel blocking, patch-clamp, read-out: IC50, Kv1.x blocking (Kv1.3)
Description: Table 1 Summary of chimeric protein-binding prediction studies in the light of IC50 values | column: Kv1.x blocking / IC50 (nM) || Peptide toxins of venomous animal origin as lead molecules for optimization may offer an advantage over small molecules in terms of potentially greater affinity and specificity. These miniproteins are usually up to 50 amino acids in length and can adopt distinct conformation with secondary structural elements stabilized by several disulfide bonds ([9], [10], [11]). Due to their considerable surface area, miniproteins can form stable complexes with target proteins through extensive interaction surfaces ([12], [13]). The miniprotein Kv1.3 blocker drug candidate, Dalazatide—a synthetic derivative ... || Our initial investigation focused on assessing the relative binding affinities of various channel-blocking toxins to the T-only version of the KcsA-Kv1.3 chimera. Subsequently, we evaluated whether these affinities aligned with the toxins' blocking efficacy on native human Kv1.3 channels, as determined by patch-clamp assay.

human Kv1.1 = details: cited from earlier work
[1] = target: T1, KcsA-Kv1.1 T-only chimera (Streptomyces lividans, UniProt P0A334, R52A/G53E/A54E/P55A/G56E/A57S/Q58H/L59F/I60S/T61S/Y62I/R64D); assay: Phage ELISA-binding assay, KcsA-Kv1.1 T-only; set-up: species or system human Kv1.1 turret in Streptomyces lividans KcsA; details: toxin displayed on M13 phage; Fig. 8C
T1 sequence (P0A334 1-160 R52A/G53E/A54E/P55A/G56E/A57S/Q58H/L59F/I60S/T61S/Y62I/R64D): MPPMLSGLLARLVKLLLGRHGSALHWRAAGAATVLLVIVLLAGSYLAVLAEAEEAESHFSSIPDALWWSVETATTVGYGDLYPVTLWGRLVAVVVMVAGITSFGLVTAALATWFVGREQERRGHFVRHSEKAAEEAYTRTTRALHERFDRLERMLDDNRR
Description: (§1) Phage display test solutions were prepared according to routine phage display protocols ([62]). Phosphorylated and annealed oligonucleotides encoding the peptide construct were ligated into linearized pAS62 phagemid vector (https://patents.google.com/patent/WO2022144560A1/en) at a vector/insert ratio of 1:3. The final phagemid construct harbored a signal sequence followed by the peptide of interest, a linker sequence ([…]), and the C-terminal part of the P3 coat protein (amino acids: 216-424 of NP_510891.1). Chemically competent XL1-Blue E. coli cells (2022249, Agilent) were transformed with the ligation product and then streaked onto ampicillin (100 μg/ml) containing LB/Amp plates and incubated for 16 h at 37 °C. A few clones were sequenced, and a single colony with confirmed target sequence was inoculated into 3 ml 2 YT medium supplemented with 100 μg/ml ampicillin and incubated at 37 °C until the culture reached midlog phase. The culture was infected with M13KO7 helper phage (N0315S, New England Biolabs) (phage/cell ratio 10:1) and was incubated for 30 min at 37 °C. The 3 ml culture was transferred into 200 ml 2YT medium, supplemented with 100 μg/ml ampicillin and 25 μg/ml kanamycin, and incubated overnight at 37 °C. The overnight cell culture (200 ml) was pelleted by centrifugation at 8000g for 10 min in 400 ml centrifuge tubes at 4 °C. […] The particle concentrations of phage solutions were determined using a NanoDrop One C (Thermo Fisher Scientific) spectrophotometer. The phage particle concentration was assessed according to the formula: (A268–A320) × 5 × 10^12 particles/ml ([62]). […]
(§2) Phage stock solutions were diluted to working concentration with phage resuspension buffer supplemented with 2 mM DDM. […] Following blocking, the wells were washed 4× with washing buffer (300 μl TBS-Tween, 0.1% v/v) using a Wellwash Versa microplate washer (Thermo Fisher Scientific); then 50 μl phage solution (in TBS-BSA-Tween, 0.1% v/v, 2 mM DDM) at determined phage concentration was added to the wells and incubated for 1 h at room temperature on a horizontal shaker. […]

[2] = target: T2, KcsA-Kv1.2 T-only chimera (Streptomyces lividans, UniProt P0A334, R52A/G53D/A54E/P55R/G56E/A57S/L59F/I60P/T61S/Y62I/R64D); assay: Phage ELISA-binding assay, KcsA-Kv1.2 T-only; set-up: species or system human Kv1.2 turret in Streptomyces lividans KcsA; details: toxin displayed on M13 phage, Fig. 7C
T2 sequence (P0A334 1-160 R52A/G53D/A54E/P55R/G56E/A57S/L59F/I60P/T61S/Y62I/R64D): T1 sequence (P0A334 1-160 R52A/G53E/A54E/P55A/G56E/A57S/Q58H/L59F/I60S/T61S/Y62I/R64D) with E53D, A55R, H58Q, S60P
Description: as §1, §2

Compound	inhibition of Kv1.3, in words (human Kv1.3)	IC50 (human Kv1.3) [nM]	inhibition of Kv1.1, in words (human Kv1.1)	IC50 (human Kv1.1; human Kv1.1 channel blocking, patch-clamp, read-out: IC50, Kv1.x blocking (Kv1.1)) [nM]	phage binding to KcsA-Kv1.1 T-only, in words [1]	phage binding to KcsA-Kv1.2 T-only, in words [2]
CC[C@H](C)[C@@H]1NC(=O)CNC(=O)[C@H](Cc2ccccc2)NC(=O)[C@H](CCC(N)=O)NC(=O)[C@H](C)NC(=O)[C@H](CCCCN)NC(=O)[C@@H]2CSSC[C@@H](C(=O)N[C@@H](Cc3ccc(O)cc3)C(=O)N3CCC[C@H]3C(=O)N[C@@H](Cc3c[nH]cn3)C(=O)O)NC(=O)[C@H](CCCCN)NC(=O)[C@@H]3CSSC[C@H](NC(=O)[C@H](CCC(N)=O)NC(=O)[C@H](CCCCN)NC(=O)[C@@H]4CCCN4C(=O)[C@H](CO)NC(=O)[C@H]([C@@H](C)O)NC(=O)[C@@H](NC(=O)[C@H](CCCCN)NC(=O)[C@@H](NC(=O)[C@H](CC(=O)O)NC(=O)[C@@H](NC(=O)[C@@H](NC(=O)[C@@H](N)[C@@H](C)O)C(C)C)[C@@H](C)CC)C(C)C)CSSC[C@H](NC(=O)[C@H](CCCCN)NC(=O)[C@H](C)NC(=O)CNC(=O)[C@H](C)NC(=O)[C@H](CCCNC(=N)N)NC1=O)C(=O)N[C@@H](CCSC)C(=O)N[C@@H](CC(N)=O)C(=O)NCC(=O)N[C@@H](CCCCN)C(=O)N3)C(=O)N[C@@H](CC(C)C)C(=O)N1CCC[C@H]1C(=O)N1CCC[C@H]1C(=O)N2 [HgTx1, Hongotoxin-1] (HELM PEPTIDE1{T.V.I.D.V.K.C.T.S.P.K.Q.C.L.P.P.C.K.A.Q.F.G.I.R.A.G.A.K.C.M.N.G.K.C.K.C.Y.P.H}$PEPTIDE1,PEPTIDE1,7:R3-29:R3|PEPTIDE1,PEPTIDE1,13:R3-34:R3|PEPTIDE1,PEPTIDE1,17:R3-36:R3$$$V2.0; N-terminus and C-terminus assumed)	equivalent high potency	0.086	equivalent high potency	–	–	–
CC[C@H](C)[C@@H]1NC(=O)[C@@H]2CSSC[C@H](NC(=O)[C@H](CO)NC(=O)[C@@H](N)C(C)C)C(=O)N[C@@H]([C@@H](C)O)C(=O)NCC(=O)N[C@@H](CO)C(=O)N[C@@H](CCCCN)C(=O)N[C@@H](CC(=O)O)C(=O)N[C@@H](CSSC[C@@H](C(=O)N[C@@H](CCCCN)C(=O)N[C@H]3CSSC[C@@H](C(N)=O)NC(=O)CNC(=O)[C@H](Cc4ccc(O)cc4)NC3=O)NC(=O)[C@H](CO)NC(=O)[C@H](CCCCN)NC(=O)[C@H](CC(N)=O)NC1=O)C(=O)N[C@@H](Cc1ccc(O)cc1)C(=O)N[C@@H](C)C(=O)N1CCC[C@H]1C(=O)N[C@H]1CSSC[C@H](NC(=O)CNC(=O)[C@H]([C@@H](C)O)NC(=O)[C@H](CCC(N)=O)NC(=O)[C@H](CCCCN)NC(=O)[C@H](CCCNC(=N)N)NC1=O)C(=O)N1CCC[C@H]1C(=O)N[C@@H](CC(N)=O)C(=O)N[C@@H](C)C(=O)N[C@@H](CCCCN)C(=O)N2 [MTX, Maurotoxin] (HELM PEPTIDE1{V.S.C.T.G.S.K.D.C.Y.A.P.C.R.K.Q.T.G.C.P.N.A.K.C.I.N.K.S.C.K.C.Y.G.C.[am]}$PEPTIDE1,PEPTIDE1,3:R3-24:R3|PEPTIDE1,PEPTIDE1,9:R3-29:R3|PEPTIDE1,PEPTIDE1,13:R3-19:R3|PEPTIDE1,PEPTIDE1,31:R3-34:R3$$$V2.0; N-terminus and C-terminus assumed)	–	–	–	> 100	negligible binding	negligible binding
CC[C@H](C)[C@H](NC(=O)[C@H](C)NC(=O)[C@H](C)NC(=O)[C@H](C)N)C(=O)N[C@@H](CO)C(=O)N[C@H]1CSSC[C@@H]2NC(=O)[C@H](CCCCN)NC(=O)CNC(=O)[C@H](CC(N)=O)NC(=O)[C@H](CCCCN)NC(=O)[C@@H]3CSSC[C@@H](C(N)=O)NC(=O)[C@H](Cc4ccc(O)cc4)NC(=O)[C@H](Cc4ccc(O)cc4)NC(=O)[C@@H]4CSSC[C@H](NC(=O)[C@H](CCCCN)NC(=O)[C@@H]5CCCN5C(=O)[C@@H]5CCCN5C(=O)[C@H](CSSC[C@H](NC(=O)[C@H](CCCCN)NC(=O)[C@H](CCCNC(=N)N)NC(=O)[C@H](CC(N)=O)NC(=O)[C@H](CCSC)NC2=O)C(=O)N[C@@H](CCCCN)C(=O)N4)NC(=O)[C@H](CCC(=O)O)NC(=O)[C@@H]2CCCN2C(=O)[C@H](CO)NC(=O)CNC(=O)[C@H](C(C)C)NC1=O)C(=O)N[C@@H](CCCNC(=N)N)C(=O)N[C@@H](C)C(=O)N[C@@H](CCC(N)=O)C(=O)NCC(=O)N3 [Vm24, Vm24 toxin]	–	0.003	–	–	–	–
CC[C@H](C)[C@@H]1NC(=O)[C@@H](NC(=O)[C@H](CO)NC(=O)[C@@H](N)CCCNC(=N)N)CSSC[C@@H](C(=O)O)NC(=O)[C@H]([C@@H](C)O)NC(=O)CNC(=O)[C@@H]2CSSC[C@@H]3NC(=O)[C@H](CCC(N)=O)NC(=O)[C@H](Cc4ccccc4)NC(=O)[C@H](C)NC(=O)[C@H]([C@@H](C)O)NC(=O)[C@H](CSSC[C@H](NC(=O)[C@H](Cc4ccccc4)NC(=O)[C@H](CO)NC(=O)[C@H](CC(C)C)NC(=O)[C@H](CCCNC(=N)N)NC(=O)[C@H](Cc4ccc(O)cc4)NC(=O)[C@H](CCCCN)NC(=O)[C@H](CCSC)NC(=O)[C@H](CO)NC(=O)[C@H](Cc4c[nH]cn4)NC(=O)[C@H](CCCCN)NC3=O)C(=O)N[C@@H](CCCNC(=N)N)C(=O)N[C@@H](CCCCN)C(=O)N[C@@H]([C@@H](C)O)C(=O)N2)NC(=O)[C@H](CCCNC(=N)N)NC(=O)[C@H](CO)NC(=O)[C@H](CCCCN)NC(=O)[C@@H]2CCCN2C(=O)[C@H]([C@@H](C)CC)NC(=O)[C@H]([C@@H](C)O)NC(=O)[C@H](CC(=O)O)NC1=O [ShK, Stichodactyla toxin]	–	–	–	–	ShK > KTX1	inconsistent with their published channel blocking potencies
